Type in all cases: cell-based
In assay [1] the target is T1, AR-TIF2 PPI (Homo sapiens, UniProt P10275).
T1 construct: AR-LBD residues (662-919) were incorporated into one biosensor; expressed in transfected cells; host or cells: U-2 OS osteosarcoma cells, coinfected with recombinant adenoviruses
T1 sequence (P10275 662-919): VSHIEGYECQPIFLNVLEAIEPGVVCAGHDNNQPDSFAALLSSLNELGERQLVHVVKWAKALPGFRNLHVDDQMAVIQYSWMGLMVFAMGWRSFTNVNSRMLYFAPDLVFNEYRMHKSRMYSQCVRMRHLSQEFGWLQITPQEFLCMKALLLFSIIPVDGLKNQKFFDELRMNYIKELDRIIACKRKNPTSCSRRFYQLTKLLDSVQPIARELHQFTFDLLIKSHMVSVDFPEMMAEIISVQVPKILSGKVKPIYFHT
As to the kind of experiment: AR-TIF2 PPIB HCS assay: inhibition of DHT-induced AR-TIF2 PPI formation (compound then DHT). Particulars: U-2 OS cells. As for the experimental part: (§1) AR-TIF2 Protein-Protein Interaction Biosensor Assay: The AR-TIF2 PPIB HCS assay was performed in U-2 OS osteosarcoma cells as described previously (Fancher et al., Assay Drug Dev Technol. 2016, 14:453-477; Fancher et al., Assay Drug Dev Technol. 2018, 16:297-319; Hua et al., Assay Drug Dev Technol. 2014, 12:395-418; Hua et al., Methods Mol Biol. 2018, 1683:211-227). Briefly, U-2 OS cells were coinfected with recombinant adenovirus biosensor expression constructs and seeded at 2,500 cells per well in 384-well collagen-coated microplates (Greiner Bio-One #781956) and plates were incubated overnight at 37° C. in 5% CO2 and 95% humidity. […] After the appropriate time, assay plates were fixed by transfer of 50 μL of pre-warmed (37° C.) 7.4% formaldehyde and 2 μg/mL Hoechst 33342 in PBS and incubation at room temperature for 30 minutes. Liquid was aspirated, plates were washed twice with 85 μL PBS, leaving the final wash in the plate. Plates were sealed with adhesive aluminum plate seals, and fluorescent images of three fields of view were acquired in the DAPI (Hoechst stained nuclei), FITC (TIF2-GFP) and Texas Red (AR-RFP) channels on an ImageXpress® Micro (IXM) automated HCS platform (Molecular Devices LLC, Sunnyvale, CA) using a 10× Plan Fluor 0.3 NA objective. Images were analyzed using the Translocation Enhanced (TE) image analysis module of the MetaXpress® software (Molecular Devices, LLC, San Jose, CA) as described previously (Fancher et al., Assay Drug Dev Technol. 2016, 14:453-477; Fancher et al., Assay Drug Dev Technol. 2018, 16:297-319; Hua et al., Assay Drug Dev Technol. 2014, 12:395-418; Hua et al., Methods Mol Biol. 2018, 1683:211-227).
(§2) For the 96-well AR-LBD H^3-DHT radioligand binding assay, eight minimum and maximum plate control wells were utilized to normalize the data. For the PC cell line growth inhibition assays the DMSO control data from the TO and T72 assay plates was used to assess the dynamic range of the T0 to T72 cell growth, and to calculate S:B ratios and Z′-factor coefficient statistics for the assay signal window (T0 to T72). To normalize the 72 h compound exposure PC growth inhibition data, the signals from the compound treated wells were processed and expressed as % of the T72 DMSO plate controls. IC50 and GI50 values for each of the bioassays were calculated using GraphPad Prism 9 software to plot and fit data to curves using the Sigmoidal dose response variable slope equation Y=Bottom+[Top-Bottom]/[1+10^(Log EC50−X)*HillSlope].
(§3) A positional AR-TFI2 protein-protein interaction biosensor (PPIB) assay was used to identify small molecules that inhibited DHT-induced formation of AR-TIF2 PPIs and/or disrupted pre-existing AR-TIF2 PPIs (Fancher et al., Assay Drug Dev Technol 2016, 14(8):453-477; Fancher et al., Assay Drug Dev Technol 2018, 16(6):297-319; Hua et al., Assay Drug Dev Technol 2014, 12:395-418; Hua et al., Methods Mol biol 2018, 1683:211-227). AR-LBD residues (662-919) were incorporated into one biosensor and TIF2 residues (725-840) containing the 3rd NR box LXXLL motif into the second interacting biosensor partner (Id.) The AR-TIF2 PPIB recapitulates the orthosteric ligand (OSL)-induced translocation of AR from the cytoplasm into the nucleus where PPIs with TIF2 result in colocalization of both biosensors in the nucleolus. Using three libraries, a total of 143,535 compounds were screened—a 10,000-compound ChemDiv PPI focused diversity library, a 50,000-compound ChemBridge diversity library, and a 83,535-compound library provided by the NCI's Chemical Biology Consortium. The 10K and 50K diversity libraries were subsets of 142K and 810K parent libraries, enabling screening of a representative subset of >1×10^6 compounds. AR-TIF2 PPI inhibitor and disruptor actives were confirmed in the HCS assay and counter screens designed to identify and exclude nuisance/interference or non-selective compounds (Fancher et al., Assay Drug Dev Technol 2018, 16(6):297-319). […]

Assay [2] addresses T1, AR-TIF2 PPI. Kind of assay: AR-TIF2 PPIB HCS assay: disruption of preformed DHT-induced AR-TIF2 PPI complexes (DHT then compound). Conditions: U-2 OS cells. As for the experimental part:
as §1, §2, §3

Assay [3] in a line: GI50 given in Tables 4-6 (test not described). Conditions: cell line not stated.
Assay [4] deals with T1, AR-TIF2 PPI. Kind of assay: AR-TIF2 PPIB assay, both formats stated jointly. Particulars: both assay formats; read-out: AR-TIF2 PPI inhibitor/disruptor IC50s. The procedure: as §1
A positional AR-TFI2 protein-protein interaction biosensor (PPIB) assay was used to identify small molecules that inhibited DHT-induced formation of AR-TIF2 PPIs and/or disrupted pre-existing AR-TIF2 PPIs (Fancher et al., Assay Drug Dev Technol 2016, 14(8):453-477; Fancher et al., Assay Drug Dev Technol 2018, 16(6):297-319; Hua et al., Assay Drug Dev Technol 2014, 12:395-418; Hua et al., Methods Mol biol 2018, 1683:211-227). AR-LBD residues (662-919) were incorporated into one biosensor and TIF2 residues (725-840) containing the 3rd NR box LXXLL motif into the second interacting biosensor partner (Id.) The AR-TIF2 PPIB recapitulates the orthosteric ligand (OSL)-induced translocation of AR from the cytoplasm into the nucleus where PPIs with TIF2 result in colocalization of both biosensors in the nucleolus. Using three libraries, a total of 143,535 compounds were screened—a 10,000-compound ChemDiv PPI focused diversity library, a 50,000-compound ChemBridge diversity library, and a 83,535-compound library provided by the NCI's Chemical Biology Consortium. The 10K and 50K diversity libraries were subsets of 142K and 810K parent libraries, enabling screening of a representative subset of >1×10^6 compounds. AR-TIF2 PPI inhibitor and disruptor actives were confirmed in the HCS assay and counter screens designed to identify and exclude nuisance/interference or non-selective compounds (Fancher et al., Assay Drug Dev Technol 2018, 16(6):297-319). […] An AR-GFP subcellular localization assay was used to exclude compounds that reduced AR expression and/or restricted its localization to the cytoplasm (Fancher et al., Assay Drug Dev Technol 2018, 16(6):297-319; Johnston et al., Assay Drug Dev Technol 2016, 14:226-239; Masodi et al., Mol Cancer Ther 2017, 16(10):2120-2129). Hits were structurally classified, clustered, and medicinal chemistry computational filters (PAINS/REOS) were used to exclude nuisance compounds and evaluate drug-like properties (Baell, J Med Chem 2010, 53(7):2719-2740; Baell, ACS Chem. Biol. 2018, 13:36-44; Johnston, Curr Opin Chem Biol 2011, 15:174-182; Walters, Adv Drug Deliv Rev 2002, 54:255-271). […]

Assay [5] relates to PSA expression in C4-2 cells. Kind of assay: Western blot of PSA expression in C4-2 cells. Particulars: C4-2 cells, hits 20 μM (enzalutamide 25 μM) 3 h, ±10 nM DHT 24 h. As for the experimental part:
Cell lysate protein concentrations were determined in a bicinchoninic acid (BCA) assay. Equal amounts of cell protein were mixed with SDS-PAGE sample buffer and placed in a heat block at 100° C. for 5 min. The protein constituents of C4-2 cells were separated by SDS-PAGE on 10% separating gels, transferred to nitrocellulose membranes and western blots were probed overnight at 4° C. with a 1:1000 dilution of a rabbit anti-hPSA (Cell Signaling, Danvers, MA) primary antibody in Tris-buffered saline (TBS) Tween 20 (TBST) containing 5% non-fat milk. Membranes were washed 3× in TBST for 10 min, then incubated for 1 h at room temperature with a 1:10,000 dilution of the goat anti-rabbit IgG horse radish peroxidase (HRP) conjugated secondary antibody (Invitrogen, Carlsbad, CA) in TBST containing 5% non-fat milk. Western blots were then washed 3× in TBST and developed with Pierce enhanced chemiluminescence (ECL) western blotting substrate (Thermo Fisher Scientific, Waltham, MA). Images of western blot ECL bands were acquired on an iBright™ 1500 imaging system (Thermo Fisher Scientific, Waltham, MA) and quantified by iBright™ image analysis software.
Background: A western blot detects proteins with antibodies after separation by electrophoresis.

The mark [6] stands for this setting: 25 nM DHT, read-out: Inhibition DHT-induced AR-TIF2 PPI Formation IC50.
The mark [7] stands for this setting: compound then DHT, read-out: C then D IC50.
The mark [8] stands for this setting: DHT then compound, read-out: D then C IC50.
Setting [9] is: 25 nM DHT, read-out: Disruption of DHT-induced AR-TIF2 PPIs IC50.

The GI50 is the concentration at which growth is held to half of that of the control. A high value points to lower sensitivity of the cells. Turning to `Cc1nsc(NC(=O)N2CCC(Cn3ccnc3C)CC2)n1` [Compound S2-8], the IC50 on AR-TIF2 PPI [1] (setting [6]), on AR-TIF2 PPI [1] (setting [7]), at AR-TIF2 PPI [2] (setting [8]), at AR-TIF2 PPI [2] (setting [9]) and on AR-TIF2 PPI [4] was > 100 µM in each case. The 50% growth inhibitory concentration (GI50) in assay [3] was > 100 µM.

Regarding `Cc1nsc(NC(=O)N2CCC(CN3CCCC3=O)CC2)n1` [Compound S2-9], the IC50 on AR-TIF2 PPI [1] (setting [6]), at AR-TIF2 PPI [1] (setting [7]), on AR-TIF2 PPI [2] (setting [8]), at AR-TIF2 PPI [2] (setting [9]) and on AR-TIF2 PPI [4] was > 100 µM each time. In addition, the concentration for 50% growth inhibition (GI50) in assay [3] is > 100 µM.

Turning to `Cc1nsc(NC(=O)N2CCC(F)CC2)n1` [Compound S2-10], the IC50 at AR-TIF2 PPI [1] (setting [6]), on AR-TIF2 PPI [1] (setting [7]), at AR-TIF2 PPI [2] (setting [8]), at AR-TIF2 PPI [2] (setting [9]) and on AR-TIF2 PPI [4] was > 100 µM throughout. Also, the concentration for 50% growth inhibition (GI50) in assay [3] was > 100 µM.

`Cc1c(-c2ccccc2F)[nH]c2ccc(CNC(=O)c3cc[nH]n3)cc12` [Compound S3-16]: the IC50 at AR-TIF2 PPI [1] (setting [7]) is 28.8 µM; at AR-TIF2 PPI [2] (setting [8]) it was > 100 µM. The GI50 in assay [3] was > 100 µM.

As for `Cc1c(-c2ccccc2F)[nH]c2ccc(CNC(=O)C3=NNC(=O)CC3)cc12` [Compound S3-18], the IC50 on AR-TIF2 PPI [2] (setting [8]) was > 100 µM. For the same compound, the GI50 in assay [3] is > 100 µM.

In the case of `Cc1c(-c2ccccc2F)[nH]c2ccc(CNC(=O)Cc3cccnc3)cc12` [Compound S3-19], the IC50 at AR-TIF2 PPI [1] (setting [7]) came to 68.5 µM. For the same compound, the concentration for 50% growth inhibition (GI50) in assay [3] is > 100 µM.

With `Cc1ccc2[nH]cc(-c3cc(CN)ccc3F)c2c1` [Compound S3-20], the IC50 is 61.5 µM on AR-TIF2 PPI [1] (setting [7]) and 71.5 µM on AR-TIF2 PPI [2] (setting [8]). Further, halving of growth in assay [3] (GI50) required 22.1 µM.

Consider `CNC(=O)c1ccc(OC)c(-c2c[nH]c3ccc(C)cc23)c1` [Compound S3-22], for which the IC50 on AR-TIF2 PPI [1] (setting [7]) and on AR-TIF2 PPI [2] (setting [8]) was > 100 µM throughout. The GI50 in assay [3] is > 100 µM.

`Cc1cccc2c(-c3ccc(Cl)c(C(N)=O)c3)c[nH]c12` [Compound S3-23]: the IC50 on AR-TIF2 PPI [1] (setting [7]) stood at 1 µM; on AR-TIF2 PPI [2] (setting [8]), 46.2 µM. Moreover, the 50% growth inhibitory concentration (GI50) in assay [3] was > 100 µM.

With `Cc1cccc2c(-c3cccc(C(N)=O)n3)c[nH]c12` [Compound S3-24], the values for the IC50 at AR-TIF2 PPI [1] (setting [7]) and at AR-TIF2 PPI [2] (setting [8]) were 4.1 µM and 26 µM, respectively. The 50% growth inhibitory concentration (GI50) in assay [3] is > 100 µM.

Consider `CCc1[nH]c2c(CNC(=O)CCCc3cn[nH]c3)cc(F)cc2c1C` [Compound S3-25], for which the IC50 at AR-TIF2 PPI [1] (setting [7]) was 77.1 µM; at AR-TIF2 PPI [2] (setting [8]), > 100 µM. For the same compound, the concentration for 50% growth inhibition (GI50) in assay [3] is > 100 µM.

In the case of `CNC(=O)c1ccc(N2C(=S)N(c3ccc(C#N)c(C(F)(F)F)c3)C(=O)C2(C)C)cc1F` [enzalutamide, reference compound], the “Endogenous and DHT-enhanced PSA expression” value in assay [5] is recorded as “inhibits DHT-enhanced PSA expression”.

These data come from patent US20260083751A1, “ALLOSTERIC MODULATORS OF ANDROGEN RECEPTOR COACTIVATOR RECRUITMENT FOR CRPC THERAPY” (University of Pittsburgh – Of the Commonwealth System of …, priority 2022, published 2026).
